Experimental data reported in patent publication US6642392B1 (priority 1997, dated 2003).
Like-named read-outs stand apart in the source and are kept apart here.

Columns and labels:
Assay type in all cases: in vivo
Pyricularia oryzae = settings: for Test C disease control rating (100 = 100% disease control, 0 = no disease control): rice seedlings sprayed to run-off, inoculated the following day, rating relative to controls, unmarked compounds (standard test rate); for Test C disease control rating: rice blast
Botrytis cinerea = assay: Test E: gray mold, preventive spray on cucumber seedlings; settings: for Test E disease control rating (100 = 100% disease control, 0 = no disease control): cucumber seedlings sprayed to run-off, inoculated the following day, rating relative to controls, unmarked compounds (standard test rate); for Test E disease control rating: gray mold on cucumber
Procedure, shortened: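 Compounds in 3% acetone were suspended with 250 ppm Trem 014 surfactant and sprayed to run-off on cucumber seedlings. B. cinerea spores were inoculated next day, then 48 h saturated humidity at 20° C and 5 days at 20° C. Disease control rated 0–100% versus controls.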

[1] = tested on: Eiysiphe graminis f. sp. tritici; assay: Test A: wheat powdery mildew, preventive spray on wheat seedlings; settings: for Test A disease control rating (100 = 100% disease control, 0 = no disease control): wheat seedlings sprayed to run-off, inoculated the following day, rating relative to controls, unmarked compounds (standard test rate); for Test A disease control rating: wheat powdery mildew
Procedure, shortened: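 Compounds (3% acetone, 250 ppm Trem 014) sprayed to run-off on wheat seedlings, inoculated next day with spore dust. Incubated 7 days at 20° C before disease rating, 0–100% control relative to untreated controls.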

Phytophthora infestans = settings: for Test D disease control rating (100 = 100% disease control, 0 = no disease control): tomato seedlings sprayed to run-off, inoculated the following day, rating relative to controls, unmarked compounds (standard test rate); for Test D disease control rating: tomato late blight
Puccinia recondita = assay: Test B: wheat leaf rust, preventive spray on wheat seedlings; settings: for Test B disease control rating (100 = 100% disease control, 0 = no disease control): wheat seedlings sprayed to run-off, inoculated the following day, rating relative to controls, unmarked compounds (standard test rate); for Test B disease control rating: wheat leaf rust
Procedure, shortened: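 Wheat seedlings were sprayed to run-off with compound (3% acetone, 250 ppm Trem 014), then inoculated with P. recondita spores the next day. They were held 24 h saturated at 20 °C, then 6 days at 20 °C. Ratings are 0–100% disease control versus controls.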

[2] = 100 = 100% disease control, 0 = no control, unmarked entries (standard test concentration)
[3] = 100 = 100% disease control, 0 = no control relative to controls, unmarked entries (standard test concentration)

Row | SMILES | Test C disease control rating (Pyricularia oryzae; [2]) [%] | Test E disease control rating (Botrytis cinerea; [2]) [%] | Test A disease control rating [1, 3] [%] | Test D disease control rating (Phytophthora infestans; [2]) [%] | Test B disease control rating (Puccinia recondita; [2]) [%] | other results
1 | C=CC(C)(CF)C(C#N)C(=O)NC(C)COc1cc(F)ccc1F (mixture of isomers) [compound 218] | – | – | – | – | – | Test C disease control rating (100 = 100% disease control, 0 = no disease control) (Pyricularia oryzae): 100%; Test E disease control rating (100 = 100% disease control, 0 = no disease control) (Botrytis cinerea): 0%; Test A disease control rating (100 = 100% disease control, 0 = no disease control) [1]: 86%; Test D disease control rating (100 = 100% disease control, 0 = no disease control) (Phytophthora infestans): 17%; Test B disease control rating (100 = 100% disease control, 0 = no disease control) (Puccinia recondita): 68%
2 | C[C@H](COc1ccc(Cl)cc1)NC(=O)C(C#N)C(C)(C)C (single isomer, unassigned) [7c] | 86 | 45 | 0 | 9 | 0 | –
3 | C=CCc1cccc(C#N)c1OCC(C)NC(=O)C1(CC)C(C)C1(Cl)Cl (mixture of isomers) [compound 254] | – | – | – | – | – | Test C disease control rating (100 = 100% disease control, 0 = no disease control) (Pyricularia oryzae): 53%; Test E disease control rating (100 = 100% disease control, 0 = no disease control) (Botrytis cinerea): 0%; Test A disease control rating (100 = 100% disease control, 0 = no disease control) [1]: 0%; Test D disease control rating (100 = 100% disease control, 0 = no disease control) (Phytophthora infestans): 0%; Test B disease control rating (100 = 100% disease control, 0 = no disease control) (Puccinia recondita): 0%
4 | Cc1ccc(OC[C@@H](C)NC(=O)C(C#N)C(C)(C)C)c(Cl)c1 (single isomer, unassigned) [14b] | 86 | 0 | 61 | 23 | 0 | –
5 | C[C@H](COc1cc(F)c(F)cc1F)NC(=O)C(C#N)C(C)(C)C (single isomer, unassigned) [188b] | 100 | 45 | 0 | 35 | 0 | –
6 | CC(COc1c(F)cccc1F)NC(=O)C(C#N)C(C)(C)C (mixture of isomers) [29b] | 100 | 0 | 0 | 23 | 0 | –
7 | CC(COc1cc(Cl)ccc1Cl)NC(=O)C(C#N)C(C)C(C)(C)C (mixture of isomers) [compound 62] | – | – | – | – | – | Test C disease control rating (Pyricularia oryzae; tested at 40 ppm): 52%; Test E disease control rating (Botrytis cinerea; tested at 40 ppm): 0%; Test A disease control rating ([1]; tested at 40 ppm): 74%; Test D disease control rating (Phytophthora infestans; tested at 40 ppm): 0%; Test B disease control rating (Puccinia recondita; tested at 40 ppm): 0%
8 | CCC1(C(=O)NC(C)COc2ccccc2C)C(C)C1(Cl)Cl (mixture of isomers) [compound 95] | – | – | – | – | – | Test C disease control rating (Pyricularia oryzae; tested at 40 ppm): 94%; Test E disease control rating (Botrytis cinerea; tested at 40 ppm): 0%; Test A disease control rating ([1]; tested at 40 ppm): 52%; Test D disease control rating (Phytophthora infestans; tested at 40 ppm): 0%; Test B disease control rating (Puccinia recondita; tested at 40 ppm): 86%
9 | C=CC(C)(CF)C(C#N)C(=O)NC(C)COc1cc(F)ccc1Cl (mixture of isomers) [compound 220] | – | – | – | – | – | Test C disease control rating (100 = 100% disease control, 0 = no disease control) (Pyricularia oryzae): 100%; Test E disease control rating (100 = 100% disease control, 0 = no disease control) (Botrytis cinerea): 0%; Test A disease control rating (100 = 100% disease control, 0 = no disease control) [1]: 0%; Test D disease control rating (100 = 100% disease control, 0 = no disease control) (Phytophthora infestans): 85%; Test B disease control rating (100 = 100% disease control, 0 = no disease control) (Puccinia recondita): 0%
10 | C[C@H](COc1ccc(Cl)cc1F)NC(=O)C(C#N)C(C)(C)C (single isomer, unassigned) [36b] | 100 | 0 | 62 | 80 | 27 | –
11 | CCCc1ccccc1OCC(C)NC(=O)C(C#N)C(C)(C)C (mixture of isomers) [21a] | 99 | 0 | 38 | 4 | 68 | –
12 | CCC1(C(=O)NC(C)COc2ccc(Cl)cc2)C(C)C1(Cl)Cl (mixture of isomers) [83a] | – | – | – | – | – | Test C disease control rating (Pyricularia oryzae; tested at 40 ppm): 32%; Test E disease control rating (Botrytis cinerea; tested at 40 ppm): 0%; Test A disease control rating ([1]; tested at 40 ppm): 0%; Test D disease control rating (Phytophthora infestans; tested at 40 ppm): 0%; Test B disease control rating (Puccinia recondita; tested at 40 ppm): 0%
13 | CCC1(C(=O)NC(C)COc2cc(F)cc(F)c2C#N)C(C)C1(Cl)Cl (mixture of isomers) [compound 135] | 53 | 0 | 0 | 2 | 0 | –
14 | C[C@H](COc1ccc(F)c(F)c1Br)NC(=O)C(C#N)C(C)(C)C (single isomer, unassigned) [187b] | 94 | 6 | 77 | 91 | 68 | –
15 | CCC1(C(=O)NC(C)COc2cccc(F)c2C#N)C(C)C1(Cl)Cl (mixture of isomers) [compound 130] | 32 | 0 | 0 | 2 | 0 | –
16 | CCC1(C(=O)NC(C)COn2cc(Cl)cc2C#N)C(C)C1(Cl)Cl (mixture of isomers) [compound 138] | 53 | 0 | 0 | 13 | 0 | –
17 | C[C@H](COc1cc(F)ccc1Br)NC(=O)C(C#N)C(C)(C)C (single isomer, unassigned) [166b] | 99 | 0 | 0 | 0 | 0 | –
18 | CCC1(C(=O)NCC(C)=Cc2ccccc2)C(C)C1(Cl)Cl (stereo not drawn) [compound 265] | – | – | – | – | – | Test C disease control rating (100 = 100% disease control, 0 = no disease control) (Pyricularia oryzae): 91%; Test E disease control rating (100 = 100% disease control, 0 = no disease control) (Botrytis cinerea): 0%; Test A disease control rating (100 = 100% disease control, 0 = no disease control) [1]: 77%; Test D disease control rating (100 = 100% disease control, 0 = no disease control) (Phytophthora infestans): 96%; Test B disease control rating (100 = 100% disease control, 0 = no disease control) (Puccinia recondita): 0%
19 | C[C@H](COc1ccc(F)cc1F)NC(=O)C(C#N)C(C)(C)C (single isomer, unassigned) [27b] | 100 | 0 | 91 | 0 | 0 | –
20 | Cc1cccc(OCC(C)NC(=O)C(C#N)C(C)(C)C)c1 (mixture of isomers) [compound 176] | 94 | 6 | 77 | 56 | 0 | –
21 | C=CC(C)(C)C(C#N)C(=O)NC(C)COc1cc(C)ccc1F (mixture of isomers) [compound 282] | – | – | – | – | – | Test C disease control rating (100 = 100% disease control, 0 = no disease control) (Pyricularia oryzae): 100%; Test E disease control rating (100 = 100% disease control, 0 = no disease control) (Botrytis cinerea): 0%; Test A disease control rating (100 = 100% disease control, 0 = no disease control) [1]: 0%; Test D disease control rating (100 = 100% disease control, 0 = no disease control) (Phytophthora infestans): 24%; Test B disease control rating (100 = 100% disease control, 0 = no disease control) (Puccinia recondita): 0%
22 | CCC1(C(=O)NC(C)COc2cc(Cl)c(Cl)cc2Cl)C(C)C1(Cl)Cl (stereo not drawn) [compound 242] | – | – | – | – | – | Test C disease control rating (100 = 100% disease control, 0 = no disease control) (Pyricularia oryzae): 74%; Test E disease control rating (100 = 100% disease control, 0 = no disease control) (Botrytis cinerea): 0%; Test A disease control rating (100 = 100% disease control, 0 = no disease control) [1]: 0%; Test D disease control rating (100 = 100% disease control, 0 = no disease control) (Phytophthora infestans): 96%; Test B disease control rating (100 = 100% disease control, 0 = no disease control) (Puccinia recondita): 0%
23 | CC(COc1cccc(F)c1C#N)NC(=O)C(C#N)C(C)C(C)(C)C (mixture of isomers) [compound 63] | 0 | 0 | 0 | 2 | 0 | –
24 | Cc1ccc(Cl)c(OC[C@@H](C)NC(=O)C(C#N)C(C)(C)C)c1 (single isomer, unassigned) [15b] | 97 | 0 | 0 | 45 | 0 | –
25 | CCC1(C(=O)NC(C)COc2cccc(C(F)(F)F)c2C#N)C(C)C1(Cl)Cl (mixture of isomers) [compound 133] | 0 | 0 | 0 | 0 | 0 | –
26 | CC(C)(C)C(C#N)C(=O)NC/C=C/c1ccccc1F (racemic) [compound 178] | 53 | 58 | 0 | 0 | 0 | –
27 | CC(COc1cccc(F)c1)NC(=O)C(C#N)C(C)(C)C (single isomer, unassigned) [3c] | 100 | 0 | 38 | 4 | 0 | –
